This note sets out measurements from ChEMBL document CHEMBL4373717, “Coumarin-containing hybrids and their anticancer activities” (Eur J Med Chem, 2019).

In brackets after ≈: the same amount, converted by molar mass.

Series [1] relates to MDA-MB-231. Description: Cytotoxicity against human MDA-MB-231 cells assessed as reduction in cell viability. It counts as functional, cell-based.
Series [2] concerns Ishikawa. Description: Cytotoxicity against human Ishikawa cells assessed as reduction in cell viability. It counts as functional, cell-based.
Series [3] concerns MCF7. Description: Cytotoxicity against human MCF7 cells assessed as reduction in cell viability. The class given is functional, cell-based.
For series [4], the system named is MCF7. The experiment in a line: Potency index, ratio of methotrexate IC50 to compound IC50 for cytotoxicity against human MCF7 cells assessed as reduction in cell viability. The class given is functional.
The subject of series [5] is MCF7. The experiment in a line: Cytotoxicity against human MCF7 cells assessed as reduction in cell viability by MTT assay. The class given is functional, cell-based. Particulars: Homo sapiens, MCF7. On the technique in general: Formazan colour is commonly taken as a measure of viable cells.
Series [6] is described as follows: Toxicity in mouse assessed as mouse survival (reference value: 14.5 days). The note with it: in vivo, 348 h.
Series [7] concerns HeLa. Description: Cytotoxicity against human HeLa cells assessed as reduction in cell viability by MTT assay. The class given is functional, cell-based.
A further series relates to COS-7. Description: Cytotoxicity against African green monkey COS7 cells assessed as reduction in cell viability by MTT assay. The class given is functional, cell-based. The note with it: Chlorocebus aethiops.
Series [8] concerns A549. The experiment in a line: Cytotoxicity against human A549 cells assessed as reduction in cell viability by MTT assay. It counts as functional, cell-based.
Series [9] concerns HepG2. The experiment in a line: Cytotoxicity against human HepG2 cells assessed as reduction in cell viability by MTT assay. The class given is functional, cell-based. Particulars: Homo sapiens, HepG2.
The test system of another series is PANC-1. The experiment in a line: Cytotoxicity against human PANC1 cells assessed as reduction in cell viability by MTT assay. It counts as functional, cell-based.
The subject of series [10] is HepG2. The experiment in a line: Anticancer activity against human HepG2 cells by MTT assay. It counts as functional, cell-based.
The subject of series [11] is HepG2. Description: Potency index, ratio of doxorubicin IC50 to compound IC50 for anticancer activity against human HepG2 cells by MTT assay. The class given is functional.
Another series relates to HCT-116. The experiment in a line: Anticancer activity against human HCT116 cells. The class given is functional, cell-based.
Another series relates to PC-3. Description: Cytotoxicity against human PC3 cells assessed as reduction in cell viability by MTT assay. The class given is functional, cell-based.
Another series relates to HT-29. Description: Cytotoxicity against human HT-29 cells assessed as reduction in cell viability by MTT assay. It counts as functional, cell-based.
The test system of series [12] is HepG2. The experiment in a line: Antiproliferative activity against human HepG2 cells after 72 hrs by ELISA. Particulars: HepG2, 72 h. The class given is functional, cell-based.
For another series, the system named is SF-268. Description: Growth inhibition of human SF268 cells. It counts as functional.
A further series relates to Caco-2. Description: Antiproliferative activity against human Caco2 cells after 72 hrs by ELISA. The note with it: Caco-2, 72 h. The class given is functional, cell-based. Background: An ELISA detects its analyte on a solid surface through an enzyme-linked reagent.
The next series concerns NCI-H460. Description: Growth inhibition of human NCI-H460 cells. It counts as functional.
The test system of another series is HEK-293T. Description: Cytotoxicity against HEK293T cells assessed as reduction in cell viability after 24 hrs by MTT assay. It counts as cell-based. The note with it: Homo sapiens.
In series [13] the test system is HeLa. Description: Antiproliferative activity against human HeLa cells by MTT assay. The class given is functional, cell-based.
Series [14] concerns MDA-MB-231. Description: Cytotoxicity against human MDA-MB-231 cells assessed as reduction in cell viability after 24 hrs by MTT assay. Particulars: Homo sapiens, MDA-MB-231, 24 h. It counts as functional, cell-based.
For series [15], the system named is HeLa. The experiment in a line: Cytotoxicity against human HeLa cells assessed as reduction in cell viability after 24 hrs by MTT assay. It counts as functional, cell-based.
For series [16], the system named is A549. The experiment in a line: Cytotoxicity against human A549 cells assessed as reduction in cell viability after 24 hrs by MTT assay. It counts as functional, cell-based. The note with it: A549, 24 h.
The test system of series [17] is HeLa. Description: Anticancer activity against human HeLa cells by MTT assay. The class given is functional, cell-based.
Another series has as its system 769-P. The experiment in a line: Anticancer activity against human 769-P cells by MTT assay. The class given is functional, cell-based.
The next series concerns DLD-1. The experiment in a line: Cytotoxicity against human DLD1 cells assessed as reduction in cell viability. It counts as functional, cell-based.
Series [18] relates to MCF7. The experiment in a line: Growth inhibition of human MCF7 cells. The class given is functional.
In series [19] the test system is HepG2. Description: Cytotoxicity against human HepG2 cells assessed as reduction in cell viability after 48 hrs by MTT assay. The class given is functional, cell-based. Particulars: HepG2, 48 h.
Series [20] relates to A549. The experiment in a line: Anticancer activity against human A549 cells by MTT assay. The class given is functional, cell-based.
The subject of series [21] is MDA-MB-231. The experiment in a line: Anticancer activity against human MDA-MB-231 cells by MTT assay. It counts as functional, cell-based.
Series [22] deals with MDA-MB-231. Description: Cytotoxicity against human MDA-MB-231 cells assessed as reduction in cell viability after 24 hrs in hypoxic condition by MTT assay. The note with it: MDA-MB-231, 24 h.
The subject of a further series is L02. The experiment in a line: Cytotoxicity against human L02 cells assessed as reduction in cell viability after 24 hrs by MTT assay. The class given is cell-based. The note with it: L02, 24 h.
Series [23] deals with Ishikawa. Description: Growth inhibition of human Ishikawa cells relative to control. The class given is functional.
A further series relates to K562. Description: Anticancer activity against human K562 cells by MTT assay. The class given is functional, cell-based.
Series [24] deals with MCF7. The experiment in a line: Cytotoxicity against human MCF7 cells assessed as reduction in cell viability after 24 hrs by MTT assay. The class given is functional, cell-based. The note with it: MCF7, 24 h.

As usually defined, the IC50 is the concentration at which inhibition is half-maximal. As for `COC(=O)c1cc2cc(-c3nc4cc(C)ccn4c3NC(C)(C)C)cc(C(C)C)c2oc1=O`, the IC50 in the series with MDA-MB-231 [1], in the series with Ishikawa [2] and in the series with MCF7 [3] was 14.1 to 42.6 µM throughout.

Turning to `CCN(C)S(=O)(=O)c1ccc(/C(C)=N/NC(=O)c2cc(=O)oc3ccccc23)cc1`, in the series with MCF7 [4], the “Ratio IC50” value turned out to be 10.7. Also, in the series with MCF7 [5], the IC50 came to 2.53 µM.

As to `O=c1oc2ccccc2cc1-c1csc(N/N=C/c2c3ccccc3c(Cl)c3ccccc23)n1`, in [6], the Survival turned out to be 45.5 days. Moreover, the IC50 in the series on HeLa [7], with MCF7 [3] and with COS-7 was 1.29 to 1.96 µM in each case.

For `O=c1oc2ccccc2cc1-c1csc(N/N=C/c2cc([N+](=O)[O-])ccc2Cl)n1`, the Survival in [6] stood at 39.3 days. The IC50 in the series with HeLa [7], in the series with MCF7 [3] and in the series with COS-7 was 1.29 to 1.96 µM each time.

Consider `COc1cc(Cl)ccc1NS(=O)(=O)c1ccc2oc(=O)ccc2c1`, for which the IC50 in the series with A549 [8], with HepG2 [9] and in the series on PANC-1 was 4.63 to 7.02 µM each time.

In the series with HepG2 [10], `O=c1ccc2ccc(OCCn3cc(COc4ccc5ccc(=O)oc5c4)nn3)cc2o1` displayed an IC50 of 0.383 µM. The “Ratio IC50” value in the series on HepG2 [11] is on record as 2.1.

For `NS(=O)(=O)c1ccc(Nc2nn3c(Cc4cc(=O)oc5ccccc45)nnc3s2)cc1`, inhibition in the series on HCT-116 was half-maximal at 2.66 µM (IC50).

Regarding `COc1ccc2oc(=O)c(/C=C3\SC(=O)N(C(=O)c4ccc(Cl)cc4)C3=O)cc2c1`, the IC50 in the series on PC-3, in the series with A549 [8], in the series on HeLa [7], with HT-29 and in the series on MCF7 [5] was 0.95 to 3.2 µM throughout.

As usually defined, the GI50 is the concentration giving 50% growth inhibition. As to `COc1cccc2c1C(=O)c1c(O)c3c(c(O)c1C2=O)C[C@@](O)(C(=O)CO)C[C@@H]3O[C@H]1C[C@H](N)[C@H](O)[C@H](C)O1` [DOXORUBICIN], the IC50 with HepG2 [12] is 4.1 µM; in the series with PC-3 it was 0.82 to 2.13 µM; with A549 [8] it was 0.82 to 2.13 µM; in the series with HeLa [7], 0.82 to 3.04 µM; in the series on HT-29 it was 0.82 to 2.13 µM; in the series with Caco-2 it was 5.13 µM. For the same compound, the IC50 in the series on HEK-293T is 3.77 µM; in the series with HeLa [13], 1.11 µM; in the series with MDA-MB-231 [14] it was 3.97 to 5.13 µM; with HeLa [15], 3.97 to 5.13 µM; in the series with A549 [16], 3.97 to 5.13 µM; in the series on HeLa [17] it was 0.54 to 0.6 µg/mL (≈ 0.994 to 1.1 µM). Also, the IC50 with 769-P is 0.45 to 0.89 µM; with DLD-1, 163 µM; in the series on HepG2 [19] it was 3.01 µM; in the series with A549 [20], 0.54 to 0.6 µg/mL (≈ 0.994 to 1.1 µM); with HepG2 [10], 0.45 to 0.89 µM; with MDA-MB-231 [21], 0.45 to 0.89 µg/mL (≈ 0.828 to 1.64 µM). In addition, the IC50 was 0.6 µM with MDA-MB-231 [22], 1.09 µM with L02, 2.05 to 3.04 µM in the series with COS-7 and 0.54 to 0.6 µg/mL (≈ 0.994 to 1.1 µM) in the series on K562. For the same compound, the GI50 with SF-268, with NCI-H460 and with MCF7 [18] was 0.04 to 0.09 µM throughout. For the same compound, the “growth inhibition (GI)” value in the series with Ishikawa [23] is reported as 11.55 - 95.52%.

As for `CC(C)=CC[C@@H](O)C1=CC(=O)c2c(O)ccc(O)c2C1=O` [SHIKONIN], the IC50 in the series with MCF7 [24] is 6.5 to 10.4 µM; in the series on HEK-293T, 1.52 µM; in the series on MDA-MB-231 [14] it was 6.5 to 10.4 µM; in the series with HeLa [15], 6.5 to 10.4 µM; in the series on A549 [16], 6.5 to 10.4 µM; in the series on L02, 6.22 µM.
